# Assay results taken from patent US20040034093A1, “Methods for enhancing motor performance and/or endurance” (priority 2002, published 2004).
# Columns and labels:
# [1] = test system: tocopherol-depleted rats; conditions: rats fed tocopherol for two weeks after chronic iron-dextran (Dillard et al., 1983); cited from earlier work
# [2] = test system: humans; conditions: limited trials in humans (Clarkson 1995; Powers and Lennon 1999); cited from earlier work
# [3] = test system: rodent; conditions: rodent (Novelli et al., 1990); cited from earlier work
# [4] = cited from earlier work; for absorption by the gut: Traber et al., 1992
# [5] = test system: Normal, nontransgenic (NonTg) C57/B6 mice; experiment: rotorod performance task (motor function); assay type: in vivo; conditions: diet supplemented with additional 200 mg/kg tocopherol from 40 days of age; versus basal diet or α-tocopherol supplemented diet
# Protocol: Normal, nontransgenic (NonTg) C57/B6 mice were studied for efficacy of γT on motor performance and/or enhanced muscle function. Beginning at 40 days of age, animals were fed a basal AIN93G laboratory animal diet containing 75 mg/kg α-tocopherol and negligible γ-tocopherol; or the same diet supplemented with an additional 200 mg/kg α-tocopherol or γ-tocopherol. Motor function was measured by a standard rotorod performance task (Klivenyi et al., 1999). Animals were placed on a motorized, rubber-coated metal rod that was set to rotate at 1 rpm increasing by 1 rpm every 10 seconds (Klivenyi et al., 1999). The speed of the rod rotation at which the mouse falls off is taken as a measure of motor competency (Klivenyi et al., 1999). Each mouse was tested in three trials every 10 days.
# [6] = relative to the corresponding reaction of αT (Cooney et al., 1993); cited from earlier work
# [7] = test system: methylcholanthrene-treated C3H/10T1/2 fibroblasts; conditions: methylcholanthrene-treated C3H/10T1/2 fibroblasts (Cooney et al., 1993); cited from earlier work
# [8] = liposomal tocopherol exposed to synthetic peroxynitrite (Christen et al., 1997); cited from earlier work
# [9] = test system: iron-induced lipid peroxidation and occlusive thrombus formation; conditions: Saldeen et al., 1999; cited from earlier work
Compound,inhibition of systemic lipid oxidation [1],muscle endurance [2],endurance during a swimming test [3],absorption by the gut [4],capability of performing the motor function task (rotorod) [5],rate of in vitro reaction with NO2 gas relative to αT [6],effectiveness at inhibiting neoplastic transformation relative to αT [7],effectiveness at inhibiting lipid hydroperoxide formation relative to αT [8],effectiveness at inhibiting systemic lipid oxidation relative to αT [1],potency at inhibition of iron-induced lipid peroxidation and occlusive thrombus formation relative to αT [9],"packaging into lipoproteins ([4]; relative to αT (Traber et al., 1992))"
"Cc1c(C)c2c(c(C)c1O)CC[C@@](C)(CCC[C@H](C)CCC[C@H](C)CCCC(C)C)O2 [α-tocopherol, reference compound]",inhibited systemic lipid oxidation,did not extend muscle endurance,extended rodent endurance,absorbed equally well,–,–,–,–,–,–,–
Cc1c(O)cc2c(c1C)O[C@](C)(CCC[C@H](C)CCC[C@H](C)CCCC(C)C)CC2 [γ-tocopherol],inhibited systemic lipid oxidation,–,–,absorbed equally well,significantly more capable of performing the motor function task,6 times,4 fold,twice as effective,approximately 35%,20-30 times,less effectively
